According to publication PMC12583774 (Nature Communications, 2025):

Assays:
[1] = test system: SARS-CoV-2 strain (Wuhan-Hu-1); assay: microbe, parasite or virus in culture; format: cell-based; conditions: Severe acute respiratory syndrome coronavirus 2, A549-ACE2, 24 h
[2] = test system: SARS-CoV-2 nCoV-SH01 strain; set-up: species or system K18-hACE2 transgenic mice; conditions: mouse, in vivo

CCC(CC)COC(=O)[C@H](C)N[P@](=O)(OC[C@H]1O[C@@](C#N)(c2ccc3c(N)ncnn23)[C@H](O)[C@@H]1O)Oc1ccccc1 [remdesivir]
EC50 [1]: 60 nM
SARS-CoV-2 N protein antigen staining in lungs (IHC) [2]: significantly reduced viral antigen staining
lung pathological features (H&E) [2]: markedly alleviated
